System: McpC ligand-binding domain (Salmonella Typhimurium SL1344)
Experiment: protein melting temperature (Tm) in presence of compound (degrees C); higher = more thermal stabilisation (possible ligand binding)
Settings: Biolog plate: PM01; compound stock concentration: 10-20 mM, 2 uL in 10 uL reaction

Structure (SMILES) | protein melting temperature
OC[C@H]1O[C@@H](O[C@@H]2[C@@H](CO)OC(O)(CO)[C@H]2O)[C@H](O)[C@@H](O)[C@H]1O (mixture of isomers) [Lactulose] | 44.9
O=P(O)(O)OC[C@H](O)CO (racemic) [DL-a-Glycerol Phosphate] | 44.6
CC(O)CO (stereo not given) [1,2-Propanediol] | 44.8
NCCO [2-Aminoethanol] | 44.3
Nc1ncnc2c1ncn2[C@H]1C[C@H](O)[C@@H](CO)O1 [2`-Deoxyadenosine] | 43.9
Nc1ncnc2c1ncn2[C@@H]1O[C@H](CO)[C@@H](O)[C@H]1O [Adenosine] | 43.8
OCC(O)C(O)C(O)CO (stereo not given) [Adonitol] | 44.8
O=C(O)CC(Br)C(=O)O (stereo not given) [Bromosuccinic acid] | 44.8
O=C(CO)[C@@H](O)[C@H](O)[C@H](O)CO [D-Fructose] | 44.3
OC[C@H]1OC(O)[C@H](O)[C@@H](O)[C@H]1O (stereo partly drawn) [D-Galactose] | 44.8
O=C(O)[C@H]1OC(O)[C@H](O)[C@@H](O)[C@H]1O (stereo partly drawn) [D-Galacturonic acid] | 44.4
O=C[C@H](O)[C@@H](O)[C@H](O)[C@H](O)COP(=O)(O)O [D-Glucose-6-Phosphate] | 44.6
OC[C@@H](O)[C@@H](O)[C@H](O)[C@H](O)CO [D-Mannitol] | 44.7

Next, values leading:

protein melting temperature | Structure (SMILES)
44.5 | O=C(O)CC(O)C(=O)O (racemic) [DL-Malic acid]
44.6 | CC(=O)CC(=O)O [Acetoacetic acid]
44.9 | C[C@H](N)C(=O)NCC(=O)O [Ala-Gly]
43.9 | C[C@@H](N)C(=O)O [D-Alanine]
44.2 | N[C@H](CC(=O)O)C(=O)O [D-Aspartic acid]
43.6 | O=C(O)C[C@@H](O)C(=O)O [D-Malic acid]

Same assay, conditions: Biolog plate: PM02A; compound stock concentration: 10-20 mM, 2 uL in 10 uL reaction

Structure (SMILES) | protein melting temperature
NCC(O)c1ccc(O)cc1 (racemic) [D,L-Octopamine] | 43.9
CC(O)C(C)O (stereo not given) [2,3-Butanediol] | 44.2
O=C(O)c1ccccc1O [2-Hydroxybenzoic acid] | 45.4
O=C[C@@H](O)[C@H](O[C@@H]1O[C@H](CO)[C@H](O)[C@H](O)[C@H]1O)[C@H](O)CO [3-O-b-D-Galactopyranosyl-D-Arabinose] | 44.5
O=C(O)c1ccc(O)cc1 [4-Hydroxybenzoic acid] | 43.3
N#C[C@H](O[C@@H]1O[C@H](CO[C@@H]2O[C@H](CO)[C@@H](O)[C@H](O)[C@H]2O)[C@@H](O)[C@H](O)[C@H]1O)c1ccccc1 [Amygdalin] | 44.3
OC[C@H]1O[C@@H](Oc2ccc(O)cc2)[C@H](O)[C@@H](O)[C@@H]1O [Arbutin] | 43.7
CCCCCCCCCC(=O)O [Capric acid] | 42.4
OC1OC[C@@H](O)[C@@H](O)[C@@H]1O (stereo partly drawn) [D-Arabinose] | 43.6
OC[C@@H](O)C(O)[C@H](O)CO [D-Arabitol] | 44.4
C[C@@H](O)[C@H](O)[C@H](O)[C@@H](O)C=O [D-Fucose] | 43.3
OC[C@@H](O)[C@@H](O[C@@H]1O[C@H](CO)[C@H](O)[C@H](O)[C@H]1O)[C@H](O)[C@@H](O)CO [D-Lactitol] | 44.7

Next, values leading:

protein melting temperature | Structure (SMILES)
44.4 | C[N+](C)(C)CC(O)CC(=O)[O-] (racemic) [D,L-Carnitine]
43.9 | CC(=O)C(C)=O [2,3-Butanedione]
43.5 | CC(=O)C(C)O (stereo not given) [3-Hydroxy-2-butanone]
43.9 | O=C(CO)[C@@H](O)[C@H](O)[C@@H](O)C(=O)O [5-Keto-D-Gluconic acid]
43.3 | CCCCCC(=O)O [Caproic acid]
43.7 | C/C(=C/C(=O)O)C(=O)O [Citraconic acid]
44.1 | CC(O)(CC(=O)O)C(=O)O (stereo not given) [Citramalic acid]
44.4 | COC(=O)[C@@H](C)O [D-Lactic acid Methyl Ester]

Same assay, conditions: Biolog plate: PM03B; compound stock concentration: 10-20 mM, 2 uL in 10 uL reaction

Structure (SMILES) | protein melting temperature
CC(O)C(N)=O (racemic) [DL-Lactamide] | 45.6
Nc1[nH]cnc2ncnc1-2 [Adenine] | 45.2
Nc1ncnc2c1ncn2[C@@H]1O[C@H](CO)[C@@H](O)[C@H]1O [Adenosine] | 45.4
NCCCCN=C(N)N [Agmatine] | 44.1
NC(=O)NC1NC(=O)NC1=O (stereo not given) [Allantoin] | 44.2
O=C1NC(=O)C(=O)C(=O)N1 [Alloxan] | 44.3
NC(=O)NC(N)=O [Biuret] | 44.2
Nc1ccn([C@@H]2O[C@H](CO)[C@@H](O)[C@H]2O)c(=O)n1 [Cytidine] | 44.7
Nc1cc[nH]c(=O)n1 [Cytosine] | 45.2

Next, values leading:

protein melting temperature | Structure (SMILES)
44.3 | CCC(N)C(=O)O (racemic) [DL-a-Amino-N-Butyric acid]
45 | C[C@H](N)C(=O)N[C@@H](CC(=O)O)C(=O)O [Ala-Asp]
45.1 | C[C@H](N)C(=O)N[C@@H](CCC(N)=O)C(=O)O [Ala-Gln]
45.2 | C[C@H](N)C(=O)N[C@@H](CCC(=O)O)C(=O)O [Ala-Glu]
45.2 | C[C@H](N)C(=O)NCC(=O)O [Ala-Gly]
45.3 | C[C@H](N)C(=O)N[C@@H](Cc1cnc[nH]1)C(=O)O [Ala-His]
45.1 | C[C@H](N)C(=O)N[C@H](C(=O)O)[C@@H](C)O [Ala-Thr]
44.9 | C[C@@H](N)C(=O)O [D-Alanine]
44.8 | NC(=O)C[C@@H](N)C(=O)O [D-Asparagine]
44.9 | N[C@H](CC(=O)O)C(=O)O [D-Aspartic acid]
45 | N[C@H](CCC(=O)O)C(=O)O [D-Glutamic acid]
44.3 | NCCCC[C@@H](N)C(=O)O [D-Lysine]

Same assay, conditions: Biolog plate: PM04A; compound stock concentration: 10-20 mM, 2 uL in 10 uL reaction

Structure (SMILES) | protein melting temperature
CCSCCC(N)C(=O)O (racemic) [DL-Ethionine] | 43.9
NC(=O)CCCCC1CCSS1 (racemic) [DL-Lipoamide] | 44.4
O=P(O)(O)OC[C@H](O)CO (racemic) [DL-a-Glycerol Phosphate] | 44.4
OC[C@H]1O[C@@H](S)[C@H](O)[C@@H](O)[C@@H]1O [1-Thio-b-D-Glucose] | 44.5
NCCP(=O)(O)O [2-Aminoethyl Phosphonic acid] | 43.6
O=S(=O)(O)CCO [2-Hydroxyethane Sulfonic acid] | 44.6
O=C(O)[C@H](O)[C@@H](O)[C@H](O)[C@H](O)COP(=O)(O)O [6-Phospho-Gluconic acid] | 43.6
Nc1ncnc2c1ncn2[C@@H]1O[C@H](CO)[C@@H](O)[C@H]1OP(=O)(O)O [Adenosine 2`-Monophosphate] | 43.8
Nc1ncnc2c1ncn2[C@@H]1O[C@@H]2COP(=O)(O)O[C@H]2[C@H]1O [Adenosine 3`,5`-Cyclic Monophosphate] | 43.9
Nc1ncnc2c1ncn2[C@@H]1O[C@H](CO)[C@@H](OP(=O)(O)O)[C@H]1O [Adenosine 3`-Monophosphate] | 44.2
Nc1ncnc2c1ncn2[C@@H]1O[C@H](COP(=O)(O)O)[C@@H](O)[C@H]1O [Adenosine 5`-Monophosphate] | 43.9
CCCCS(=O)(=O)O [Butane Sulfonic acid] | 44.4
NC(=O)OP(=O)(O)O [Carbamyl Phosphate] | 44.7
NCCS [Cysteamine] | 42.8
Nc1ccn([C@@H]2O[C@H](CO)[C@@H](O)[C@H]2OP(=O)(O)O)c(=O)n1 [Cytidine 2`-Monophosphate] | 43.7
Nc1ccn([C@@H]2O[C@H](CO)[C@@H](OP(=O)(O)O)[C@H]2O)c(=O)n1 [Cytidine 3`-Monophosphate] | 45.4
N[C@@H]1[C@@H](O)[C@H](O)[C@@H](COP(=O)(O)O)O[C@@H]1O [D-Glucosamine-6-Phosphate] | 44.1
O=C[C@H](O)[C@@H](O)[C@H](O)[C@H](O)COP(=O)(O)O [D-Glucose-6-Phosphate] | 43.8

More lines, now with the values ahead:

protein melting temperature | Structure (SMILES)
43.7 | CSCCC(NC(C)=O)C(=O)O (racemic) [N-Acetyl-D,L-Methionine]
42.9 | N[C@@H](CS)C(=O)NCC(=O)O [Cys-Gly]
44.1 | O=C(O)C(CO)OP(=O)(O)O [D-2-Phospho-Glyceric acid]
44.9 | O=C(O)C(O)COP(=O)(O)O [D-3-Phospho-Glyceric acid]

Same assay, conditions: Biolog plate: PM05; compound stock concentration: 10-20 mM, 2 uL in 10 uL reaction

Structure (SMILES) | protein melting temperature
CC1(O)CCOC(=O)C1 (racemic) [DL-Mevalonic acid Lactone] | 43.8
Nc1ncnc2c1ncn2[C@H]1C[C@H](O)[C@@H](CO)O1 [2`-Deoxyadenosine] | 44
Nc1ccn([C@H]2C[C@H](O)[C@@H](CO)O2)c(=O)n1 [2`-Deoxycytidine] | 44.3
Nc1nc2c(ncn2[C@H]2C[C@H](O)[C@@H](CO)O2)c(=O)[nH]1 [2`-Deoxyguanosine] | 43.7
O=c1[nH]cnc2c1ncn2[C@H]1C[C@H](O)[C@@H](CO)O1 [2`-Deoxyinosine] | 43.9
O=c1ccn([C@H]2C[C@H](O)[C@@H](CO)O2)c(=O)[nH]1 [2`-Deoxyuridine] | 44.4
NC(=O)c1[nH]cnc1N [(5) 4-Amino-Imidazole-4(5)-Carboxamide] | 43.7
Nc1[nH]cnc2ncnc1-2 [Adenine] | 44.1
Nc1ncnc2c1ncn2[C@@H]1O[C@@H]2COP(=O)(O)O[C@H]2[C@H]1O [Adenosine 3`,5`-Cyclic Monophosphate] | 44.4
Nc1ncnc2c1ncn2[C@@H]1O[C@H](CO)[C@@H](O)[C@H]1O [Adenosine] | 44.1
C[N+](C)(C)CCO [Choline] | 43.1
Nc1ccn([C@@H]2O[C@H](CO)[C@@H](O)[C@H]2O)c(=O)n1 [Cytidine] | 43.9
Nc1cc[nH]c(=O)n1 [Cytosine] | 44.3
O=C(O)CCCC[C@@H]1SC[C@@H]2NC(=O)N[C@@H]21 [D-Biotin] | 44.5

Second part, the compound after the results:

protein melting temperature | Structure (SMILES)
43.7 | C[N+](C)(C)CC(O)CC(=O)[O-] (racemic) [DL-Carnitine]
44 | C[C@@H](N)C(=O)O [D-Alanine]
44.4 | N[C@H](CC(=O)O)C(=O)O [D-Aspartic acid]
44.8 | N[C@H](CCC(=O)O)C(=O)O [D-Glutamic acid]
